Results reported in PubChem BioAssay AID248 (DTP/NCI, 2004).
“And” between values parts separate entries of the source, which are not always exact repeats. Identical values can stand only once. Inconclusive results and toxic doses are left out. Rule as the data show it: active = T/C of 150% or more; inactive = T/C below 125%.

Tested on: L1210 leukemia ip in BDF1 mice, survival T/C
Test: NCI In Vivo Anticancer Drug Screen. Data for tumor model L1210 Leukemia (intraperitoneal) in B6D2F1 (BDF1) mice
Conditions: higher = longer survival
In short: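 Transplanted-tumor mice were given test agent; controls received vehicle only. Survival readings from the two groups were divided (treated over control).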

[1] = endpoint: mean survival time, dose: 100.0 mg/kg/injection, schedule: Q01DX009 (ip), vehicle: Klucel (hydroxypropylcellulose) (HPC)
[2] = endpoint: mean survival time, dose: 200.0 mg/kg/injection, schedule: Q01DX009 (ip), vehicle: Klucel (hydroxypropylcellulose) (HPC)
[3] = endpoint: mean survival time, dose: 400.0 mg/kg/injection, schedule: Q01DX009 (ip), vehicle: Klucel (hydroxypropylcellulose) (HPC)
[4] = endpoint: mean survival time, dose: 100.0 mg/kg/injection, schedule: Q01DX009 (ip), vehicle: other
[5] = endpoint: mean survival time, dose: 200.0 mg/kg/injection, schedule: Q01DX009 (ip), vehicle: other
[6] = endpoint: mean survival time, dose: 100.0 mg/kg/injection, schedule: Q04DX003 (ip), vehicle: Klucel (hydroxypropylcellulose) (HPC)
[7] = endpoint: mean survival time, dose: 100.0 mg/kg/injection, schedule: Q04DX003 (ip), vehicle: saline with Tween-80
[8] = endpoint: mean survival time, dose: 200.0 mg/kg/injection, schedule: Q04DX003 (ip), vehicle: Klucel (hydroxypropylcellulose) (HPC)
[9] = endpoint: mean survival time, dose: 200.0 mg/kg/injection, schedule: Q04DX003 (ip), vehicle: saline with Tween-80
[10] = endpoint: mean survival time, dose: 100.0 mg/kg/injection, schedule: Q01DX009 (ip), vehicle: saline with Tween-80
[11] = endpoint: mean survival time, dose: 200.0 mg/kg/injection, schedule: Q01DX009 (ip), vehicle: saline with Tween-80

Measured: T/C

N=c1ccn2c(n1)OC1C(OP(=O)(O)O)C(CO)OC12 (centres undefined)
active: endpoint: mean survival time, dose: 25.0 mg/kg/injection, schedule: Q01DX009 (oral), vehicle: saline 172 % of control | endpoint: mean survival time, dose: 40.0 mg/kg/injection, schedule: Q01DX009 (ip), vehicle: saline 152 % of control | endpoint: mean survival time, dose: 50.0 mg/kg/injection, schedule: Q01DX009 (oral), vehicle: saline 167 % of control | endpoint: mean survival time, dose: 80.0 mg/kg/injection, schedule: Q01DX009 (ip), vehicle: saline 175 % of control | endpoint: mean survival time, dose: 100.0 mg/kg/injection, schedule: Q01DX005 (ip), vehicle: saline 152 % of control and 160 % of control | endpoint: mean survival time, dose: 100.0 mg/kg/injection, schedule: Q01DX009 (ip), vehicle: saline 184 % of control and 185 % of control | endpoint: mean survival time, dose: 100.0 mg/kg/injection, schedule: Q01DX009 (oral), vehicle: saline 190 % of control | endpoint: mean survival time, dose: 160.0 mg/kg/injection, schedule: Q01DX009 (ip), vehicle: saline 164 % of control | endpoint: mean survival time, dose: 200.0 mg/kg/injection, schedule: Q01DX005 (ip), vehicle: saline 168 % of control and 178 % of control | endpoint: mean survival time, dose: 200.0 mg/kg/injection, schedule: Q01DX009 (ip), vehicle: saline 163 % of control and 195 % of control | endpoint: mean survival time, dose: 200.0 mg/kg/injection, schedule: Q01DX009 (oral), vehicle: saline 201 % of control | endpoint: mean survival time, dose: 400.0 mg/kg/injection, schedule: Q01DX009 (ip), vehicle: saline 192 % of control and 212 % of control | endpoint: mean survival time, dose: 400.0 mg/kg/injection, schedule: Q01DX009 (oral), vehicle: saline 245 % of control | endpoint: mean survival time, dose: 800.0 mg/kg/injection, schedule: Q01DX009 (oral), vehicle: saline 260 % of control | endpoint: median survival time, dose: 25.0 mg/kg/injection, schedule: Q03HX024 (oral), vehicle: water 172 % of control | endpoint: median survival time, dose: 50.0 mg/kg/injection, schedule: Q01DX009 (oral), vehicle: water 150 % of control | endpoint: median survival time, dose: 50.0 mg/kg/injection, schedule: Q03HX024 (oral), vehicle: water 188 % of control | endpoint: median survival time, dose: 100.0 mg/kg/injection, schedule: Q01DX009 (oral), vehicle: water 166 % of control | endpoint: median survival time, dose: 100.0 mg/kg/injection, schedule: Q03HX024 (oral), vehicle: water 194 % of control | endpoint: median survival time, dose: 200.0 mg/kg/injection, schedule: Q01DX009 (oral), vehicle: water 188 % of control | endpoint: median survival time, dose: 200.0 mg/kg/injection, schedule: Q03HX008 (oral), vehicle: water 161 % of control | endpoint: median survival time, dose: 200.0 mg/kg/injection, schedule: Q03HX024 (oral), vehicle: water 200 % of control | endpoint: median survival time, dose: 400.0 mg/kg/injection, schedule: Q01DX009 (oral), vehicle: saline 177 % of control | endpoint: median survival time, dose: 400.0 mg/kg/injection, schedule: Q01DX009 (oral), vehicle: water 211 % of control | endpoint: median survival time, dose: 400.0 mg/kg/injection, schedule: Q04DX003 (oral), vehicle: water 155 % of control | endpoint: median survival time, dose: 800.0 mg/kg/injection, schedule: Q01DX009 (oral), vehicle: saline 200 % of control | endpoint: median survival time, dose: 800.0 mg/kg/injection, schedule: Q04DX003 (oral), vehicle: water 177 % of control | endpoint: median survival time, dose: 1600.0 mg/kg/injection, schedule: Q01DX001 (oral), vehicle: saline 154 % of control | endpoint: median survival time, dose: 1600.0 mg/kg/injection, schedule: Q04DX003 (oral), vehicle: water 188 % of control | endpoint: median survival time, dose: 3200.0 mg/kg/injection, schedule: Q01DX001 (oral), vehicle: saline 168 % of control | endpoint: median survival time, dose: 3200.0 mg/kg/injection, schedule: Q04DX003 (oral), vehicle: water 166 % of control
inactive: endpoint: mean survival time, dose: 5.0 mg/kg/injection, schedule: Q01DX009 (ip), vehicle: saline 115 % of control | endpoint: median survival time, dose: 12.5 mg/kg/injection, schedule: Q01DX009 (oral), vehicle: saline 109 % of control | endpoint: median survival time, dose: 12.5 mg/kg/injection, schedule: Q03HX008 (oral), vehicle: water 111 % of control | endpoint: median survival time, dose: 25.0 mg/kg/injection, schedule: Q01DX009 (oral), vehicle: saline 109 % of control | endpoint: median survival time, dose: 25.0 mg/kg/injection, schedule: Q03HX008 (oral), vehicle: water 111 % of control | endpoint: median survival time, dose: 50.0 mg/kg/injection, schedule: Q01DX009 (oral), vehicle: saline 109 % of control | endpoint: median survival time, dose: 200.0 mg/kg/injection, schedule: Q01DX001 (oral), vehicle: saline 100 % of control | endpoint: median survival time, dose: 200.0 mg/kg/injection, schedule: Q01DX001 (oral), vehicle: water 116 % of control | endpoint: median survival time, dose: 400.0 mg/kg/injection, schedule: Q01DX001 (oral), vehicle: saline 90 % of control | endpoint: median survival time, dose: 400.0 mg/kg/injection, schedule: Q01DX001 (oral), vehicle: water 122 % of control | endpoint: median survival time, dose: 400.0 mg/kg/injection, schedule: Q03HX008 (oral), vehicle: water 111 % of control | endpoint: median survival time, dose: 400.0 mg/kg/injection, schedule: Q03HX024 (oral), vehicle: water 94 % of control

COC(=O)c1cc(O)c(C(=O)OC)s1
inactive: [1] 101 % of control | [2] 98 % of control | [3] 95 % of control

CCc1ccc(CCSCCc2ccc(CC)c[n+]2[O-])[n+]([O-])c1
inactive: endpoint: mean survival time, dose: 100.0 mg/kg/injection, schedule: Q01DX001 (ip), vehicle: saline 96 % of control | endpoint: mean survival time, dose: 200.0 mg/kg/injection, schedule: Q01DX001 (ip), vehicle: saline 100 % of control

Cc1ccc2c(c1)C(c1ccccc1)(c1ccccc1)N(c1ccccc1)S2(=O)=O
inactive: endpoint: mean survival time, dose: 100.0 mg/kg/injection, schedule: Q01DX001 (ip), vehicle: carboxymethylcellulose (CMC) 94 % of control | endpoint: mean survival time, dose: 200.0 mg/kg/injection, schedule: Q01DX001 (ip), vehicle: carboxymethylcellulose (CMC) 91 % of control | endpoint: mean survival time, dose: 400.0 mg/kg/injection, schedule: Q01DX001 (ip), vehicle: carboxymethylcellulose (CMC) 100 % of control

CCCCCCCCCCCCCCCCCC(=O)OC1C(CO)OC2C1Oc1nc(=N)ccn12 (centres undefined)
active: endpoint: mean survival time, dose: 12.5 mg/kg/injection, schedule: Q01DX009 (ip), vehicle: other 165 % of control | endpoint: mean survival time, dose: 25.0 mg/kg/injection, schedule: Q01DX009 (ip), vehicle: other 190 % of control | endpoint: mean survival time, dose: 50.0 mg/kg/injection, schedule: Q01DX009 (ip), vehicle: other 235 % of control | [4] 283 % of control
inactive: [5] 120 % of control

CCCCCCCCCCS(=O)(=O)CC(=O)O
inactive: [6] 100 % of control | [7] 100 % of control | [8] 90 % of control | [9] 98 % of control

CC(=O)NN1C(=O)c2ccccc2C1=O
inactive: endpoint: mean survival time, dose: 50.0 mg/kg/injection, schedule: Q04DX003 (ip), vehicle: Klucel (hydroxypropylcellulose) (HPC) 97 % of control | [6] 104 % of control | [8] 101 % of control

CCc1ccc(NC(=S)NC(=O)c2ccccc2OC)cc1
inactive: [4] 98 % of control | [5] 103 % of control | endpoint: mean survival time, dose: 400.0 mg/kg/injection, schedule: Q01DX009 (ip), vehicle: other 93 % of control

CC(=O)N1CCCC1=O
inactive: [1] 100 % of control | [6] 96 % of control | [2] 100 % of control | [8] 102 % of control | [3] 95 % of control | endpoint: mean survival time, dose: 400.0 mg/kg/injection, schedule: Q04DX003 (ip), vehicle: Klucel (hydroxypropylcellulose) (HPC) 102 % of control

CCC(=O)c1ccc(OC(=O)Nc2ccc(Cl)cc2[N+](=O)[O-])cc1
inactive: [10] 100 % of control and 92 % of control | endpoint: mean survival time, dose: 100.0 mg/kg/injection, schedule: Q04DX002 (ip), vehicle: saline with Tween-80 97 % of control and 113 % of control | [7] 102 % of control | [11] 96 % of control and 103 % of control | endpoint: mean survival time, dose: 200.0 mg/kg/injection, schedule: Q04DX002 (ip), vehicle: saline with Tween-80 97 % of control and 91 % of control | [9] 95 % of control | endpoint: mean survival time, dose: 400.0 mg/kg/injection, schedule: Q01DX009 (ip), vehicle: saline with Tween-80 92 % of control | endpoint: mean survival time, dose: 400.0 mg/kg/injection, schedule: Q04DX002 (ip), vehicle: saline with Tween-80 95 % of control and 92 % of control | endpoint: mean survival time, dose: 400.0 mg/kg/injection, schedule: Q04DX003 (ip), vehicle: saline with Tween-80 97 % of control

C=C1CC(C)(c2ccc(CCCC(=O)OCC)cc2)OC1=O (centres undefined)
inactive: endpoint: mean survival time, dose: 50.0 mg/kg/injection, schedule: Q01DX009 (ip), vehicle: saline with Tween-80 102 % of control | [10] 102 % of control | [7] 103 % of control | [11] 88 % of control | [9] 97 % of control

NNc1c(F)c(F)c(NN)c(F)c1F
inactive: endpoint: mean survival time, dose: 6.25 mg/kg/injection, schedule: Q04DX003 (ip), vehicle: Klucel (hydroxypropylcellulose) (HPC) 96 % of control | endpoint: mean survival time, dose: 12.5 mg/kg/injection, schedule: Q04DX003 (ip), vehicle: Klucel (hydroxypropylcellulose) (HPC) 93 % of control | endpoint: mean survival time, dose: 25.0 mg/kg/injection, schedule: Q04DX003 (ip), vehicle: Klucel (hydroxypropylcellulose) (HPC) 95 % of control
